Test results published in patent EP0533926A1, “[…]” (NIPPON SHINYAKU COMPANY, LIMITED, priority 1990, dated 1991).

Test system: human platelet aggregation
Test: Inhibitory effect on human platelet aggregation (collagen-induced, PRP, absorbance at 660 nm)
Assay type: cell-based
Conditions: concentration of collagen 2 µg/ml, 37 °C, read-out: percent inhibition of platelet aggregation (%); for inhibition at 10 µM: test drug 10 µM; for inhibition at 100 µM: test drug 100 µM
Method: Inhibitory effect on human platelet aggregation
Using a syringe filled with 2.5 ml of sodium citrate solution (Citrate for erythrocyte sedimentation test (Kokusai) distributed by Green Cross Corporation) beforehand, human blood was collected in a total quantity of 25 ml and stirred well. The blood was then centrifuged at 200× g for 10 minutes and the supernatant was recovered as a PRP (platelet-rich plasma).
Horse tendon collagen [HORMON-CHEMIE MÜNCHEN GMBH, collagen reagent (Holm)] was previously diluted to 10 and 20 µg /ml with the accompanying buffer.
Each test drug was diluted with PBS and its concentration (mM) was estimated from ultraviolet absorption.
The assay for platelet aggregation was carried out with NKK HEMA TRACER 1 (Nikko Bioscience). The cell was filled with 0.2 ml of PRP and 0.025 ml of the test drug solution and the absorbance was measured at a constant temperature of 37 °C. Then, 0.025 ml of the above collagen solution was added and the absorbance was measured (wavelength 660 nm). The percent inhibition of platelet aggregation (%) was calculated by means of the following equation. [formula] [ ] represents the absorbance.

SMILES | inhibition at 10 µM | inhibition at 100 µM
Nc1nc2c(nc(Br)n2[C@@H]2O[C@@H]3COP(=O)(O)O[C@H]3[C@H]2O)c(=O)[nH]1 [Example 8-Br-c-GMP, 8-bromocyclic GMP] | 2.9% | 49%
Nc1nc2c(ncn2[C@@H]2O[C@@H]3COP(=O)(O)O[C@H]3[C@H]2O)c(=O)[nH]1 [c-GMP, cyclic GMP] | 4% | 23%
